Test results: paper PMC8800111 (The Journal of Biological Chemistry, 2021)
Like-named read-outs stand apart in the source and are kept apart here.

What was measured:
Format in all cases: cell-based
[1] = target: proteins of U3A human fibrosarcoma cells (4462 proteins detected) (Homo sapiens, UniProt Q16891); conditions: protein IMMT; U3A cells
[2] = target: proteins of U3A human fibrosarcoma cells (4462 proteins detected) (Homo sapiens, UniProt O75635); conditions: protein SERPINB7; U3A, 10 μM, 2 h
[3] = target: proteins of U3A human fibrosarcoma cells (4462 proteins detected) (Homo sapiens, UniProt Q8NFI3); conditions: protein ENGASE; soluble abundance after heat, U3A cells
[4] = target: proteins of U3A human fibrosarcoma cells (4462 proteins detected) (Homo sapiens, UniProt Q16740); conditions: protein CLPP; soluble abundance after heat, U3A cells
[5] = target: proteins of U3A human fibrosarcoma cells (4462 proteins detected) (Homo sapiens, UniProt Q9NR28); conditions: protein DIABLO; U3A cells
[6] = target: proteins of U3A human fibrosarcoma cells (4462 proteins detected) (Homo sapiens, UniProt O00244); conditions: protein ATOX1, U3A cells
[7] = target: proteins of U3A human fibrosarcoma cells (4462 proteins detected) (Homo sapiens, UniProt P51946); conditions: protein CCNH; U3A cells
[8] = target: proteins of U3A human fibrosarcoma cells (4462 proteins detected) (Homo sapiens, UniProt P51532); conditions: protein SMARCA4; U3A cells
[9] = test system: proteins of U3A human fibrosarcoma cells (4462 proteins detected)
[10] = target: proteins of U3A human fibrosarcoma cells (4462 proteins detected) (Homo sapiens, UniProt Q9Y2A7); conditions: protein NCKAP1; U3A cells
[11] = target: proteins of U3A human fibrosarcoma cells (4462 proteins detected) (Homo sapiens, UniProt Q86V21); conditions: protein AACS, U3A cells
[12] = target: proteins of U3A human fibrosarcoma cells (4462 proteins detected) (Homo sapiens, UniProt Q76FK4); conditions: protein NOL8; soluble abundance after heat, U3A cells
[13] = target: proteins of U3A human fibrosarcoma cells (4462 proteins detected) (Homo sapiens, UniProt P61088); conditions: protein UBE2N; UBE2NL; U3A cells
[14] = target: proteins of U3A human fibrosarcoma cells (4462 proteins detected) (Homo sapiens, UniProt Q9UIV1); conditions: protein CNOT7; U3A, 10 μM, 2 h
[15] = target: proteins of U3A human fibrosarcoma cells (4462 proteins detected) (Homo sapiens, UniProt Q9BYN8); conditions: protein MRPS26; soluble abundance after heat, U3A cells
[16] = target: proteins of U3A human fibrosarcoma cells (4462 proteins detected) (Homo sapiens, UniProt P08582); conditions: protein MFI2; U3A cells
[17] = target: proteins of U3A human fibrosarcoma cells (4462 proteins detected) (Homo sapiens, UniProt Q86UA6); conditions: protein RPAIN, U3A cells
[18] = target: proteins of U3A human fibrosarcoma cells (4462 proteins detected) (Homo sapiens, UniProt P31949); conditions: protein S100A11, U3A cells
[19] = target: proteins of U3A human fibrosarcoma cells (4462 proteins detected) (Homo sapiens, UniProt Q92922); conditions: protein SMARCC1; soluble abundance after heat, U3A cells
[20] = target: proteins of U3A human fibrosarcoma cells (4462 proteins detected) (Homo sapiens, UniProt P46939); conditions: protein UTRN; soluble abundance after heat, U3A cells
[21] = target: proteins of U3A human fibrosarcoma cells (4462 proteins detected) (Homo sapiens, UniProt Q8TED0); conditions: protein UTP15; U3A cells
[22] = target: proteins of U3A human fibrosarcoma cells (4462 proteins detected) (Homo sapiens, UniProt Q9NXV6); conditions: protein CDKN2AIP; U3A cells
[23] = target: proteins of U3A human fibrosarcoma cells (4462 proteins detected) (Homo sapiens, UniProt Q9H8H0); conditions: protein NOL11; soluble abundance after heat, U3A cells
[24] = target: proteins of U3A human fibrosarcoma cells (4462 proteins detected) (Homo sapiens, UniProt Q9NXR1); conditions: protein NDE1, U3A cells
[25] = target: proteins of U3A human fibrosarcoma cells (4462 proteins detected) (Homo sapiens, UniProt P35250); conditions: protein RFC2; U3A cells
[26] = target: proteins of U3A human fibrosarcoma cells (4462 proteins detected) (Homo sapiens, UniProt Q9NP77); conditions: protein SSU72, U3A cells
[27] = target: proteins of U3A human fibrosarcoma cells (4462 proteins detected) (Homo sapiens, UniProt Q9HAT2); conditions: protein SIAE; U3A, 10 μM, 2 h

Sequence of proteins of U3A human fibrosarcoma cells (4462 proteins detected) (Homo sapiens, UniProt Q8NFI3) (Q8NFI3 whole entry): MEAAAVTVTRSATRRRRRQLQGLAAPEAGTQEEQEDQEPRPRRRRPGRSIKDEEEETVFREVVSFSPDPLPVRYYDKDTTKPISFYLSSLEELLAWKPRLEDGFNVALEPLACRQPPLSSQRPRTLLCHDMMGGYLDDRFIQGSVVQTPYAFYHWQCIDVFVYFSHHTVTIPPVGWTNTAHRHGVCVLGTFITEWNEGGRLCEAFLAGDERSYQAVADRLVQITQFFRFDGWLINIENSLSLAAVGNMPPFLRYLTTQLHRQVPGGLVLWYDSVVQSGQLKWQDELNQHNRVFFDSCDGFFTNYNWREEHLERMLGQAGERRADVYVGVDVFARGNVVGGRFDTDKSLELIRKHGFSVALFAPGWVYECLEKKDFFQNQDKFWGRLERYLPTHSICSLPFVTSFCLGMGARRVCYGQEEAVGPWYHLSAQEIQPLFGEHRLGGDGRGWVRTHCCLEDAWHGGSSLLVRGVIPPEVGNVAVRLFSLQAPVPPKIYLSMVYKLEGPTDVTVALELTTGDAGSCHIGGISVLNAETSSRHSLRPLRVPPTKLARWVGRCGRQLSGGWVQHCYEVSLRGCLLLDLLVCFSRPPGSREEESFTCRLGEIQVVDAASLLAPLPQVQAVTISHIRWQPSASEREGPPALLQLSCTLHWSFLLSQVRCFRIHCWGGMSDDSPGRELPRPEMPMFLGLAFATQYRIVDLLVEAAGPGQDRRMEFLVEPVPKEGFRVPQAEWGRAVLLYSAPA
Sequence of proteins of U3A human fibrosarcoma cells (4462 proteins detected) (Homo sapiens, UniProt Q9H8H0) (Q9H8H0 whole entry): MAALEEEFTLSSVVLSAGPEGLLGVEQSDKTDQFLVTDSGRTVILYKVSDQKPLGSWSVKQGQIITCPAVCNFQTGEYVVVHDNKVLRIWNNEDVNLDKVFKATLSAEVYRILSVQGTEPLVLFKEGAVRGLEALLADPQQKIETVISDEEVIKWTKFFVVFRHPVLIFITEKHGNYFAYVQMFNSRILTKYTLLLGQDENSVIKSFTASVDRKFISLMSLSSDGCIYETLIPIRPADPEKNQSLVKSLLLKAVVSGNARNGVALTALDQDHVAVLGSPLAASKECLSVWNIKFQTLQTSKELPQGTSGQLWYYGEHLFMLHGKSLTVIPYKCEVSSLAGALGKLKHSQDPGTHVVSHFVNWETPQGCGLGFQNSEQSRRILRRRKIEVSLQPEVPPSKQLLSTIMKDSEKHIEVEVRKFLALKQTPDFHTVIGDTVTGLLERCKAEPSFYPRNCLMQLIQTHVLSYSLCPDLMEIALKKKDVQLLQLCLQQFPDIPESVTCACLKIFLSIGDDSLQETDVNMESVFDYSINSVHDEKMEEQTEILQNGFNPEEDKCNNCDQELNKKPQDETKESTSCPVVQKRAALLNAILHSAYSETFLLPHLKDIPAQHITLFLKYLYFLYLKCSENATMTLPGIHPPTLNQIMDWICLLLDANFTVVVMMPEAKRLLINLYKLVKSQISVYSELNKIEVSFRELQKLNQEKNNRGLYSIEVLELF
Sequence of proteins of U3A human fibrosarcoma cells (4462 proteins detected) (Homo sapiens, UniProt Q9NR28) (Q9NR28 22-239): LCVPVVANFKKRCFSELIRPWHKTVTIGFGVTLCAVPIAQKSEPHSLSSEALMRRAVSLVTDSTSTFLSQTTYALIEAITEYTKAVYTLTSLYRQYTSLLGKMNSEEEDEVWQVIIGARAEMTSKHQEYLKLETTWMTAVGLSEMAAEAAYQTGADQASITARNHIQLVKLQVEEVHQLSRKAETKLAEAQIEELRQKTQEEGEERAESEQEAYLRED
Sequence of proteins of U3A human fibrosarcoma cells (4462 proteins detected) (Homo sapiens, UniProt P51532) (P51532 whole entry): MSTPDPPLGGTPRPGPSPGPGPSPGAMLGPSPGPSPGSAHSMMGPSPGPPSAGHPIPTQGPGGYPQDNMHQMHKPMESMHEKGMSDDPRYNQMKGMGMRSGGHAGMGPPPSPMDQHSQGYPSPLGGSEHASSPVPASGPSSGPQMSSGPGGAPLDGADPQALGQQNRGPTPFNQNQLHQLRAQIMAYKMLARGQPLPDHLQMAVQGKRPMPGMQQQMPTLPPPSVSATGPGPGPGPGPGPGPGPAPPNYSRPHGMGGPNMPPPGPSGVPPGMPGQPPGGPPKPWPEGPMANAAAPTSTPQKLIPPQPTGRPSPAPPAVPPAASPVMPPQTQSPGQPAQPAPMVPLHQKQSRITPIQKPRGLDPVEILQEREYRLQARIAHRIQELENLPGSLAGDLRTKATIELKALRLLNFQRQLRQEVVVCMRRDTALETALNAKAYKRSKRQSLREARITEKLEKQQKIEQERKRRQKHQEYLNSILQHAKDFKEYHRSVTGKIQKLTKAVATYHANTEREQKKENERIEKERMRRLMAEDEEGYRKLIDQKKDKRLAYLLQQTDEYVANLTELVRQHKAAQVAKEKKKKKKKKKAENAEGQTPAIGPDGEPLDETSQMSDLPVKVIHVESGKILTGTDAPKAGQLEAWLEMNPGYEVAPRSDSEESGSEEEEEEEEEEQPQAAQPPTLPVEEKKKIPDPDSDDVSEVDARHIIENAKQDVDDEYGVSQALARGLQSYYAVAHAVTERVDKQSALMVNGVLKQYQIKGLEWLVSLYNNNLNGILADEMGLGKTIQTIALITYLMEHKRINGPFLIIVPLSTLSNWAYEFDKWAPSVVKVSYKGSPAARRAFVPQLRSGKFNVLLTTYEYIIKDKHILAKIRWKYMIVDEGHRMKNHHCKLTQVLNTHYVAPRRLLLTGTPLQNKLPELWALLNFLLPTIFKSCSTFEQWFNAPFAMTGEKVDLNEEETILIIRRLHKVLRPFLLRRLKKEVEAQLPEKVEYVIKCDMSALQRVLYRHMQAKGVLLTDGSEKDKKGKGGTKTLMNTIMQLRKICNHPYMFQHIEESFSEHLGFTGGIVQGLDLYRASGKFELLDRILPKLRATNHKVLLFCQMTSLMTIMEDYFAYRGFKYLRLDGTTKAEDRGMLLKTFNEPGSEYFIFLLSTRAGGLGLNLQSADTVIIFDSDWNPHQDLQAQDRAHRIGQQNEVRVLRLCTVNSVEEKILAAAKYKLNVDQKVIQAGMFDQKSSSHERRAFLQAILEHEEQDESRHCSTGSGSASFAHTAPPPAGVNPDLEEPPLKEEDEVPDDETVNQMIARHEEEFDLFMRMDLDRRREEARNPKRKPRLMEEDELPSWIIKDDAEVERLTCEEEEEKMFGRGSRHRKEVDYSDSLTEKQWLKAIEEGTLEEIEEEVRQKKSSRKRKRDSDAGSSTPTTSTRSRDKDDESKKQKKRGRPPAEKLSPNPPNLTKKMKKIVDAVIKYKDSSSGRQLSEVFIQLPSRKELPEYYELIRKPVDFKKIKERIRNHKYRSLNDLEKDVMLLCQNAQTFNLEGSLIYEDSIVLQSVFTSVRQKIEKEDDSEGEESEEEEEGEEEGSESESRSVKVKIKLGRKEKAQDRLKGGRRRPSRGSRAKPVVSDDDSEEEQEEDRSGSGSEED
Sequence of proteins of U3A human fibrosarcoma cells (4462 proteins detected) (Homo sapiens, UniProt P35250) (P35250 whole entry): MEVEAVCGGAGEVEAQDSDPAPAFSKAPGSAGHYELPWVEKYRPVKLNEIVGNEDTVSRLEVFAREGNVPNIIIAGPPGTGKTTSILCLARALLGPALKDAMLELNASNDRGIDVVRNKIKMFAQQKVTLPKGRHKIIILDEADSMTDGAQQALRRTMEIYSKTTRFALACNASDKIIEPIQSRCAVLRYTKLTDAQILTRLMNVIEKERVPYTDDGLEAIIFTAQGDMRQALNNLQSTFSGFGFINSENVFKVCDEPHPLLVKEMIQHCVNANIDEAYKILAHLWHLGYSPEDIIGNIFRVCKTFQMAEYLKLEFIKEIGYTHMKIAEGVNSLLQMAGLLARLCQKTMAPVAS
Sequence of proteins of U3A human fibrosarcoma cells (4462 proteins detected) (Homo sapiens, UniProt O00244) (O00244 whole entry): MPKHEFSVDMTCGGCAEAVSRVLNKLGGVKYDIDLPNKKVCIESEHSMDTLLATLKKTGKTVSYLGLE
Sequence of proteins of U3A human fibrosarcoma cells (4462 proteins detected) (Homo sapiens, UniProt Q9NP77) (Q9NP77 whole entry): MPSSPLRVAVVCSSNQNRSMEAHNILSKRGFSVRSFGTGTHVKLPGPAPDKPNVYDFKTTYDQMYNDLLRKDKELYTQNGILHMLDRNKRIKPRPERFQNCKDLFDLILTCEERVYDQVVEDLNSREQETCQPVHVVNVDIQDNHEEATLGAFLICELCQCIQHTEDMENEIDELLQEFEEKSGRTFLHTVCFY
Sequence of proteins of U3A human fibrosarcoma cells (4462 proteins detected) (Homo sapiens, UniProt Q16740) (Q16740 57-277): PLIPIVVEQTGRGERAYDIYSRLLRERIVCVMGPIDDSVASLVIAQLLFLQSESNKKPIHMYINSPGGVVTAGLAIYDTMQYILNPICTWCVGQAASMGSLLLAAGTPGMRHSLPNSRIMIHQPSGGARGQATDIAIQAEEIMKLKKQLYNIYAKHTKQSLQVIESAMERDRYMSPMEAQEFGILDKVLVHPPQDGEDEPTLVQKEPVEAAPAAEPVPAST
Sequence of proteins of U3A human fibrosarcoma cells (4462 proteins detected) (Homo sapiens, UniProt Q9NXV6) (Q9NXV6 whole entry): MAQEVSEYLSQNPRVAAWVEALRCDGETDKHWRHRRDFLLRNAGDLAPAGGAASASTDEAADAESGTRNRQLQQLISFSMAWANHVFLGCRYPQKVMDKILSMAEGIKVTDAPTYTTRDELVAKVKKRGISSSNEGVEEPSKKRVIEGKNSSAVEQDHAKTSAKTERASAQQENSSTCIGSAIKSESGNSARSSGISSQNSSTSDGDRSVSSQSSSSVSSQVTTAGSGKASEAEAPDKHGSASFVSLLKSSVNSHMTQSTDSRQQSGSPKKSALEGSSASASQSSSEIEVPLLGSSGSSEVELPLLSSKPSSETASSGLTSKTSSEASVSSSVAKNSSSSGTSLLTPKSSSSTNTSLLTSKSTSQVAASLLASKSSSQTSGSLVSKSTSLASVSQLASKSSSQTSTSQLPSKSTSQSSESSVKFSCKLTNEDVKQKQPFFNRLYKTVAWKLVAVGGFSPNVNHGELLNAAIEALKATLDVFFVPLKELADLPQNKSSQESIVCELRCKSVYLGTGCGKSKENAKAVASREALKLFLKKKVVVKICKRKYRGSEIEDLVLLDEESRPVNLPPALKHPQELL
Sequence of proteins of U3A human fibrosarcoma cells (4462 proteins detected) (Homo sapiens, UniProt P61088) (P61088 whole entry): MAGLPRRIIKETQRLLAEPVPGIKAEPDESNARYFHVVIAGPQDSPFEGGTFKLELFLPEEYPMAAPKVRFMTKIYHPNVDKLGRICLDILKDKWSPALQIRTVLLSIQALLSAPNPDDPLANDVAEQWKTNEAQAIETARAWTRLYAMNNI

In the case of `CCc1nc(N)nc(N)c1-c1ccc(Cl)cc1` [pyrimethamine], the “Log2 (PYR/DMSO)” value [1] is reported as 0.19, the “Log2 (PYR/DMSO), SERPINB7” value [2] is reported as -0.19 and the “Log2 (PYR/DMSO)” value [3] is reported as 0.15. For the same compound, the “Log2 (PYR/DMSO)” value [4] was 0.14, the “Log2 (PYR/DMSO)” value [5] was 0.16 and the “Log2 (PYR/DMSO)” value [6] was -0.04. The “Log2 (PYR/DMSO)” value [7] was 0.16, the “Log2 (PYR/DMSO)” value [8] was 0.16 and the “Log2 (PYR/DMSO)” value ([9]; protein AGO2, AGO1, AGO3, AGO4, soluble abundance after heat, U3A cells) was 0.14. For the same compound, the “Log2 (PYR/DMSO), ANXA8L1; ANXA8L2; ANXA8” value ([9]; protein ANXA8L1, ANXA8L2, ANXA8, U3A, 10 μM, 2 h) was -0.40, the “Log2 (PYR/DMSO), ATP2A2; ATP2A1; ATP2A3” value ([9]; protein ATP2A2, ATP2A1, ATP2A3, U3A, 10 μM, 2 h) was 0.28 and the “Log2 (PYR/DMSO)” value ([9]; protein CUX1, U3A cells) was 0.20. For the same compound, the “Log2 (PYR/DMSO)” value ([9]; protein DHRS4, DHRS4L1, soluble abundance after heat, U3A cells) was 0.13, the “Log2 (PYR/DMSO)” value ([9]; protein EIF3C, EIF3CL, U3A cells) was 0.18 and the “Log2 (PYR/DMSO)” value ([9]; protein Em:AP000351.3, GSTT2, GSTT2B, U3A cells) was -0.05. For the same compound, the “Log2 (PYR/DMSO)” value ([9]; protein H2AFX, HIST1H2AJ, HIST1H2AH, H2AFJ, HIST2H2AC, HIST1H2AC, HIST3H2A, HIST2H2AA3, HIST1H2AD, HIST1H2AG, HIST1H2AB, HIST1H2AA, HIST2H2AB, U3A cells) was 0.19, the “Log2 (PYR/DMSO)” value ([9]; protein HIST2H3A, HIST3H3, HIST1H3A, H3F3B, H3F3A, HIST2H3PS2, H3F3C, U3A cells) was 0.22 and the “Log2 (PYR/DMSO)” value ([9]; protein HPCAL1, HPCA, soluble abundance after heat, U3A cells) was 0.15. The “Log2 (PYR/DMSO)” value ([9]; protein KHDRBS1, KHDRBS2, soluble abundance after heat, U3A cells) was 0.14, the “Log2 (PYR/DMSO), KIAA2012; SPEG” value ([9]; protein KIAA2012, SPEG, U3A, 10 μM, 2 h) was 0.26 and the “Log2 (PYR/DMSO)” value ([9]; protein MOCS2, U3A cells) was -0.04. The “Log2 (PYR/DMSO)” value ([9]; protein POLR2J3, POLR2J, POLR2J2, U3A cells) was -0.04, the “Log2 (PYR/DMSO)” value ([9]; protein POM121C, POM121, POMZP3, soluble abundance after heat, U3A cells) was 0.14 and the “Log2 (PYR/DMSO)” value ([9]; protein PPP1R2, PPP1R2P3, U3A cells) was -0.04. For the same compound, the “Log2 (PYR/DMSO), PRSS1; PRSS3P2; PRSS2” value ([9]; protein PRSS1, PRSS3P2, PRSS2, U3A, 10 μM, 2 h) was -0.20, the “Log2 (PYR/DMSO), SLC25A5; SLC25A4; SLC25A6; SLC25A31” value ([9]; protein SLC25A5, SLC25A4, SLC25A6, SLC25A31, U3A, 10 μM, 2 h) was 0.31 and the “Log2 (PYR/DMSO)” value ([9]; protein UBE2Q1, UBE2Q2, U3A cells) was 0.20. For the same compound, the “Log2 (PYR/DMSO)” value [10] was 0.15, the “Log2 (PYR/DMSO)” value [11] was -0.04 and the “Log2 (PYR/DMSO)” value [12] was 0.13. The “Log2 (PYR/DMSO)” value [13] was 0.21, the “Log2 (PYR/DMSO), CNOT7” value [14] was -0.24 and the “Log2 (PYR/DMSO)” value [15] was 0.14. For the same compound, the “Log2 (PYR/DMSO)” value [16] was 0.18, the “Log2 (PYR/DMSO)” value [17] was -0.04 and the “Log2 (PYR/DMSO)” value [18] was -0.04. For the same compound, the “Log2 (PYR/DMSO)” value [19] was 0.15, the “Log2 (PYR/DMSO)” value [20] was 0.13 and the “Log2 (PYR/DMSO)” value [21] was 0.16. The “Log2 (PYR/DMSO)” value [22] was 0.16, the “Log2 (PYR/DMSO)” value [23] was 0.14 and the “Log2 (PYR/DMSO)” value [24] was -0.04. The “Log2 (PYR/DMSO)” value [25] was 0.17, the “Log2 (PYR/DMSO)” value [26] was -0.04 and the “Log2 (PYR/DMSO), SIAE” value [27] was 0.34.
